Molecular target: T1, α4β7 integrin interaction with MadCAM-1 (RPMI8866 cells) (Homo sapiens, UniProt P13612+P26010)
T1 construct: α4β7 integrin expressing cells; endogenous in cells; host or cells: RPMI8866 cells
T1 sequence (P13612 34-1032): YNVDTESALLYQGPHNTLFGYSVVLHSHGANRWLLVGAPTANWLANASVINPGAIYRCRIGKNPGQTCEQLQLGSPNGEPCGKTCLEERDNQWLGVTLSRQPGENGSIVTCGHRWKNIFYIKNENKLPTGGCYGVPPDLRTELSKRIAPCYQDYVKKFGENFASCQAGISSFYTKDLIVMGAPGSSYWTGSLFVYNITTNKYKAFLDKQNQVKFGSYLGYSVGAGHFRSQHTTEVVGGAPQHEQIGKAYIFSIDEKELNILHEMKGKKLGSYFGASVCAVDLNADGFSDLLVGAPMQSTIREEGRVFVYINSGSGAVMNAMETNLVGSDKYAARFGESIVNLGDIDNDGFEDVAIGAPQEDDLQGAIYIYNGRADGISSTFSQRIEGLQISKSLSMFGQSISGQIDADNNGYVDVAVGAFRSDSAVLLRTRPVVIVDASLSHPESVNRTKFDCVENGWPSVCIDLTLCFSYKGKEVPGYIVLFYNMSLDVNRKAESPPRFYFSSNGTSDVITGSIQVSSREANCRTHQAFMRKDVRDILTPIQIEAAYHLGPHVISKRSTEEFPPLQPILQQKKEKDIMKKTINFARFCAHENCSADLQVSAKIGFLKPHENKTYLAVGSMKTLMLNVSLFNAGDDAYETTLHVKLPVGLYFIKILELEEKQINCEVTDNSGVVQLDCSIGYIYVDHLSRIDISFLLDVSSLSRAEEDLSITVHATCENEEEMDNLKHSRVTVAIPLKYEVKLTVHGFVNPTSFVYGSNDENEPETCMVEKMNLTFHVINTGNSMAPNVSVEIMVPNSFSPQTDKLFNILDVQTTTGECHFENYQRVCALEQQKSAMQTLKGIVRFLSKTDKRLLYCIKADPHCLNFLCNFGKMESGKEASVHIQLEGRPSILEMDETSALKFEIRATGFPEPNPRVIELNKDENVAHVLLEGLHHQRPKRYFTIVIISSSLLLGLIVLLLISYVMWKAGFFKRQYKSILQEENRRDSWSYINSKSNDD
T1 sequence (P26010 20-798): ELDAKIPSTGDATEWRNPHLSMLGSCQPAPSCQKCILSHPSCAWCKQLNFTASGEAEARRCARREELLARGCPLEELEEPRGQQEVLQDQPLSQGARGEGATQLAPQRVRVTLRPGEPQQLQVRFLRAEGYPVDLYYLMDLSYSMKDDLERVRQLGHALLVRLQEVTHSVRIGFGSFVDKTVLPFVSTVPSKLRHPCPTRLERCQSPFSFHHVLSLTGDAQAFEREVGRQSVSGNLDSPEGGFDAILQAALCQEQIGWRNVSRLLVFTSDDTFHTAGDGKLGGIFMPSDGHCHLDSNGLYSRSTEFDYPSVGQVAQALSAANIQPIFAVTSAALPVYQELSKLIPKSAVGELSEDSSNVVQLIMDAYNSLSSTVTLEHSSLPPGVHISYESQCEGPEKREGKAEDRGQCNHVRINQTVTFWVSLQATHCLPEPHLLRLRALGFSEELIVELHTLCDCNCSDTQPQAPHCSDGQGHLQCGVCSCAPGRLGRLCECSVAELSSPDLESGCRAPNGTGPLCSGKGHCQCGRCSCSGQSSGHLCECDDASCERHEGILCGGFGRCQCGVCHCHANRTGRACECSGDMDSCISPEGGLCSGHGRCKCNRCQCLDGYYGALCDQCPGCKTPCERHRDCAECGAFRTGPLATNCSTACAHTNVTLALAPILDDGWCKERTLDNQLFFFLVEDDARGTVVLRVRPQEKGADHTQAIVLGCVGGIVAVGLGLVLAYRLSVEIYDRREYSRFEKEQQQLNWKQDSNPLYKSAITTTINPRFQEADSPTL
Experiment: α4β7 Integrin Cell Capture Assay
Assay type: cell-based
Conditions: capture of α4β7 integrin expressing RPMI8866 cells on recombinant MadCAM-1 extracellular domain-coated plate; 0.5 mM MnCl2
Summary of the method: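 RPMI8866 cells (0.5×10^6 cells/mL in DMEM + 0.5% FBS + 0.5 mM MnCl2) preincubated with compound 1 h at 37 °C, then allowed to adhere 30 min at 37 °C to plates coated with MAdCAM-1 extracellular domain (1.0 μg/mL). Bound cells fixed with 2% glutaraldehyde, Hoechst-stained, imaged and counted; EC50 from cell count versus concentration.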

Q: With C[C@@H](Nc1cc(F)c(C(=O)N[C@@H](Cc2ccc(-c3cn(C)c(=O)n(C)c3=O)c3c2CCCO3)C(=O)O)c(F)c1)C(F)(F)F [Example 88, (S)-2-(2,6-difluoro-4-(((R)-1,1,1-trifluoropropan-2-yl)amino)benzamido)-3-(8-(1,3-dimethyl-2,4-dioxo-1,2,3,4-tetrahydropyrimidin-5-yl)chroman-5-yl)propanoic acid] as the compound, how does the EC50 read?
A: 2.42 nM

Q: Cc1cc(N2CCC2)c(-c2ccc(C[C@H](NC(=O)c3c(F)cc(N4CCOC[C@@H]4C(F)(F)F)cc3F)C(=O)O)c3c2OCCC3)c(=O)n1C [Example 167] was tested. Which EC50 did it give?
A: 0.521 nM

Q: Cc1cc(N2CCOC[C@@H]2C(F)(F)F)cc(F)c1C(=O)N[C@@H](Cc1ccc(-c2cc(C)c(C)n(C)c2=O)c2c1CCCO2)C(=O)O [Example 155] was tested. Which EC50 did it give?
A: 0.358 nM

Q: How did the EC50 turn out when CC[C@@H](Nc1cc(F)c(C(=O)N[C@@H](Cc2ccc(-c3c(OC)cc(C)n(C)c3=O)c3c2CCCO3)C(=O)O)c(F)c1)C(F)(F)F [Example 47, (S)-2-(2,6-difluoro-4-(((R)-1,1,1-trifluorobutan-2-yl)amino)benzamido)-3-(8-(4-methoxy-1,6-dimethyl-2-oxo-1,2-dihydropyridin-3-yl)chroman-5-yl)propanoic acid] was run?
A: 0.58 nM

Q: With O=C(N[C@@H](Cc1ccc(-c2c(Cl)cc(F)cc2Cl)c2c1OCCN2)C(=O)O)c1c(F)cccc1F [Example 51, (S)-3-(5-(2,6-dichloro-4-fluorophenyl)-3,4-dihydro-2H-benzo[b][1,4]oxazin-8-yl)-2-(2,6-difluorobenzamido)propanoic acid] as the compound, how does the EC50 read?
A: 34 nM

Q: CC[C@@H](Nc1cc(F)c(C(=O)N[C@@H](Cc2ccc(-c3c(C)cc(C)n(C)c3=O)c3c2COC3)C(=O)O)c(F)c1)C(F)(F)F [Example 22, (S)-2-(2,6-difluoro-4-(((R)-1,1,1-trifluorobutan-2-yl)amino)benzamido)-3-(7-(1,4,6-trimethyl-2-oxo-1,2-dihydropyridin-3-yl)-1,3-dihydroisobenzofuran-4-yl)propanoic acid] was tested. Which EC50 did it give?
A: 1.35 nM

Q: For O=C(N[C@@H](Cc1ccc(-c2cc(F)c(F)c3c2OCCC3)c2c1CCCO2)C(=O)O)c1c(Cl)cccc1Cl [Example 90, (S)-2-(2,6-dichlorobenzamido)-3-(5′,6′-difluoro-[8,8′-bichroman]-5-yl)propanoic acid], which EC50 is on record?
A: 16 nM

Q: Which EC50 does the source give for CC[C@@H](Nc1cc(F)c(C(=O)N[C@@H](Cc2ccc(-c3c(C)n(C)c(=O)n(C)c3=O)c3c2CCCO3)C(=O)O)c(F)c1)C(F)(F)F [Example 54, (S)-2-(2,6-difluoro-4-(((R)-1,1,1-trifluorobutan-2-yl)amino)benzamido)-3-(8-(1,3,6-trimethyl-2,4-dioxo-1,2,3,4-tetrahydropyrimidin-5-yl)chroman-5-yl)propanoic acid] here?
A: 0.607 nM

Q: For CC[C@@H](Nc1cc(F)c(C(=O)N[C@@H](Cc2ccc(-c3nc(C)c(C)n(C)c3=O)c3c2CCCO3)C(=O)O)c(F)c1F)C(F)(F)F [Example 122], which EC50 is on record?
A: 0.271 nM

Q: For CC[C@@H](Nc1cc(F)c(C(=O)N[C@@H](Cc2ccc(-c3c(C(F)(F)F)cc(C)n(C)c3=O)c3c2CCC3)C(=O)O)c(F)c1)C(F)(F)F [Example 201], which EC50 is on record?
A: 0.63 nM

Q: For Cc1cc(N2CCOC[C@@H]2C(F)(F)F)cc(F)c1C(=O)N[C@@H](Cc1ccc(-c2cc(Cl)c(C)n(C)c2=O)c2c1CCCO2)C(=O)O [Example 142], which EC50 is on record?
A: 0.25 nM

Q: Which EC50 does the source give for Cc1cc(C(F)(F)F)c(-c2ccc(C[C@H](NC(=O)c3c(F)cc(N4CCOC[C@@H]4C(F)(F)F)cc3F)C(=O)O)c3c2OCCC3)c(=O)n1C (single isomer, unassigned) [Example 40] here?
A: 0.889 nM

Q: Which EC50 does the source give for Cc1cc(C)n(C)c(=O)c1-c1ccc(C[C@H](NC(=O)c2c(F)cc(N3CCOC[C@@H]3C(F)(F)F)cc2F)C(=O)O)c2c1COC2 [Example 27, (S)-2-(2,6-difluoro-4-((R)-3-(trifluoromethyl)morpholino)benzamido)-3-(7-(1,4,6-trimethyl-2-oxo-1,2-dihydropyridin-3-yl)-1,3-dihydroisobenzofuran-4-yl)propanoic acid] here?
A: 0.822 nM
